According to patent EP1345943B1, “INHIBITORS OF PAPILLOMA VIRUS” (BOEHRINGER INGELHEIM (CANADA) LTD., priority 2000, dated 2002):

Molecular target: E1-E2-DNA complex (Human papillomavirus 11, UniProt P04015)
Assay: E2-dependent E1 DNA binding assay (E1-E2 DNA assay)
Details: E1-E2 DNA assay of Example 11, HPV-11
Description: This particular assay determines the ability of a test compound to inhibit the activity (IC50) of HPV-11 DNA replication. More specifically, in the assay described herein, the inhibitory activity of the test compound is evaluated based on its ability to interfere with the E1-E2-DNA origin of replication interaction, thereby inhibiting initiation of viral DNA replication.
This assay was modeled on a similar assay for SV40 T Antigen described by McKay (J. Mol. Biol., 1981,145:471). A 400bp radiolabeled DNA probe, containing the -HPV-11 origin of replication (Chiang et al.., 1992, Proc. Natl.-Acad. Sci. USA 89:5799) was produced by pcr, using plasmid pBluescript™ SK encoding the origin (nucleotides 7886-61 of the HPV-11 genome in unique BAMH1 site) as template and primers flanking the origin. Radiolabel was incorporated as [33p]dCTP. Binding assay buffer consisted of: 20 mM Tris pH 7.6, 100 mM NaCI, 1 mM DTT, 1 mM EDTA.
Other reagents used were protein A-SPA beads (type II, Amersham) and K72 rabbit polyclonal antiserum, raised against a peptide corresponding to the C-terminal 14 amino acids of HPV-11 E1. Following the protocol from Amersham, one bottle of beads was mixed with 25 mL of binding assay buffer. For the assay, a saturating amount of K72 antiserum was added to the beads and the mixture was incubated for 1 h, washed with one volume of binding assay buffer, and then resuspended in the same volume of fresh binding assay buffer. Binding reactions contained 8 ng of E2, approximately 100-200 ng of purified E1, and 0.4 ng of radiolabeled probe in a total of 80 µL of binding assay buffer. After 1 h at room temperature, 25 µL of K72 antibody-SPA bead suspension was added to with the binding reaction and mixed. After an additional hour of incubation at room temperature, the reactions were centrifuged briefly to pellet the beads and the extent of complex formation was determined by scintillation counting on a Packard TopCount™. Typically, the signal for reactions containing E1 and E2 was 20-30 fold higher than the background observed when either E1, E2, or both was omitted.

Chain of E1-E2-DNA complex (P04015 whole entry, one chain of several): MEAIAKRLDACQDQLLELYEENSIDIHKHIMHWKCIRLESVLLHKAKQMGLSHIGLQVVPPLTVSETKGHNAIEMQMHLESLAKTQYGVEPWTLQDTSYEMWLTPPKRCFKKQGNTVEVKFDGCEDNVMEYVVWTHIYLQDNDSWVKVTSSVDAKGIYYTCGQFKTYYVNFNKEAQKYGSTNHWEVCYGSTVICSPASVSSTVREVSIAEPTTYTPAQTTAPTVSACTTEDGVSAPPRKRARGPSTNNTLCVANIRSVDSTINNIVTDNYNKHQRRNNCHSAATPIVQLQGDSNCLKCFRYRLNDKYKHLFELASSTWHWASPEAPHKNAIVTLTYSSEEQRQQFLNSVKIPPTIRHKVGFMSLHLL

Row | SMILES | IC50
1 | COC(=O)C1C(C(=O)Nc2ccc3c(c2)OCO3)C(c2ccc(Cl)c(Cl)c2)OC12C(=O)c1ccccc1C2=O (racemic) [Compound 1022] | 0.5 to 5 µM
2 | COc1cccc(C2OC3(C(=O)c4ccccc4C3=O)C(C(=O)O)C2C(=O)Nc2ccc3c(c2)OCO3)c1 (racemic) [Compound 1023] | 5 to 50 µM
3 | CC(=O)c1ccc(NC(=O)C2C(c3ccc(Br)c(Br)c3)OC3(C(=O)c4ccccc4C3=O)C2C(=O)O)cc1 (racemic) [Compound 1027] | < 0.5 µM
4 | CC(=O)c1ccc(NC(=O)C2C(c3ccc(Cl)c(Cl)c3)OC3(C(=O)c4ccccc4C3=O)C2C(=O)O)cc1 (racemic) [Compound 1047] | 0.5 to 5 µM
5 | Cc1ccc(NC(=O)C2C(c3ccc(Br)c(Br)c3)OC3(C(=O)c4ccccc4C3=O)C2C(=O)O)cc1 (racemic) [Compound 1072] | < 0.5 µM
6 | O=C(Nc1ccccc1)C1C(c2ccc(Br)c(Br)c2)OC2(C(=O)c3ccccc3C2=O)C1C(=O)O (racemic) [Compound 1074] | < 0.5 µM
7 | O=C(NN1CCOCC1)C1C(c2ccc(Br)c(Br)c2)OC2(C(=O)c3ccccc3C2=O)C1C(=O)O (racemic) [Compound 1075] | 0.5 to 5 µM
8 | O=C(Nc1ccc(-c2csnn2)cc1)C1C(c2ccc(Br)c(Br)c2)OC2(C(=O)c3ccccc3C2=O)C1C(=O)O (racemic) [Compound 1076] | < 0.5 µM
9 | O=C(NCCc1ccccc1)C1C(c2ccc(Cl)c(Cl)c2)OC2(C(=O)c3ccccc3C2=O)C1C(=O)O (racemic) [Compound 1077] | < 0.5 µM
10 | O=C(Nc1ccc(N2CCOCC2)cc1)C1C(c2ccc(Br)c(Br)c2)OC2(C(=O)c3ccccc3C2=O)C1C(=O)O (racemic) [Compound 1078] | < 0.5 µM
11 | O=C(Nc1ccc(Br)c(Cl)c1)C1C(c2ccc(Br)c(Br)c2)OC2(C(=O)c3ccccc3C2=O)C1C(=O)O (racemic) [Compound 1102] | 0.5 to 5 µM
12 | O=C1C2C(c3ccc(Cl)c(Cl)c3)OC3(C(=O)c4ccccc4C3=O)C2C(=O)N1c1ccc2c(c1)OCO2 (racemic) [Compound 2013] | 0.5 to 5 µM
13 | CC(=O)c1ccc(N2C(=O)C3C(c4ccc(Cl)c(Cl)c4)OC4(C(=O)c5ccccc5C4=O)C3C2=O)cc1 (racemic) [Compound 2016] | 0.5 to 5 µM
14 | O=C(Nc1ccc2c(c1)OCO2)C1C(c2cc(Cl)cc(Cl)c2)OC23C(=O)c4ccccc4C2(O)OC(=O)C13 (racemic) [Compound 3001] | 0.5 to 5 µM
15 | O=C(NC1CCCCC1)C1C(c2ccc(Cl)cc2)OC23C(=O)c4ccccc4C2(O)OC(=O)C13 (racemic) [Compound 3002] | 5 to 50 µM
16 | O=C(NCc1ccccc1)C1C(c2ccc(Cl)cc2)OC23C(=O)c4ccccc4C2(O)OC(=O)C13 (racemic) [Compound 3003] | 5 to 50 µM
17 | O=C(Nc1ccc2c(c1)OCO2)C1C(c2ccc(Cl)cc2)OC23C(=O)c4ccccc4C2(O)OC(=O)C13 (racemic) [Compound 3005] | 5 to 50 µM
18 | O=C(Nc1ccccc1Cl)C1C(c2ccc(Cl)cc2)OC23C(=O)c4ccccc4C2(O)OC(=O)C13 (racemic) [Compound 3006] | 5 to 50 µM
19 | CC(NC(=O)C1C(c2ccc(Cl)c(Cl)c2)OC23C(=O)c4ccccc4C2(O)OC(=O)C13)c1ccccc1 (racemic) [Compound 3007] | 5 to 50 µM
20 | [N-]=[N+]=Nc1c(F)c(F)c(CNC(=O)C2C(c3ccc(Cl)c(Cl)c3)OC34C(=O)c5ccccc5C3(O)OC(=O)C24)c(F)c1F (racemic) [Compound 3008] | 5 to 50 µM

Row | SMILES | IC50
21 | CC(=O)c1ccc(NC(=O)C2C(c3ccc(Cl)c(Cl)c3)OC34C(=O)c5ccccc5C3(O)OC(=O)C24)cc1 (racemic) [Compound 3009] | < 0.5 µM
22 | O=C(NCc1ccccc1)C1C(c2ccc(Cl)c(Cl)c2)OC23C(=O)c4ccccc4C2(O)OC(=O)C13 (racemic) [Compound 3011] | 0.5 to 5 µM
23 | CC(=O)c1ccc(NC(=O)C2C(C=C(C)c3ccccc3)OC3(C(=O)c4ccccc4C3=O)C2C(=O)O)cc1 (racemic) [Compound 4008] | 5 to 50 µM
24 | CC(=O)c1ccc(NC(=O)C2C(C(C)=Cc3ccccc3)OC3(C(=O)c4ccccc4C3=O)C2C(=O)O)cc1 (racemic) [Compound 4009] | 5 to 50 µM
25 | CC(=O)c1ccc(NC(=O)C2C(C(Br)=Cc3ccccc3)OC3(C(=O)c4ccccc4C3=O)C2C(=O)O)cc1 (racemic) [Compound 4012] | 5 to 50 µM
26 | O=C(Nc1ccc2c(c1)OCO2)C1C(c2ccc(Cl)c(Cl)c2)OC2(C(=O)c3ccccc3C2=O)C1C(=O)O (racemic) [Compound 5001] | 0.5 to 5 µM
27 | COC(=O)C1C(C(=O)Nc2ccc3c(c2)OCO3)C(c2ccc(Cl)c(Cl)c2)OC12C(=O)c1ccccc1C21CO1 (racemic) [Compound 7001] | 5 to 50 µM
28 | O=C1C2C(c3ccc(Cl)c(Cl)c3)OC3(C(=O)c4ccccc4C3O)C2C(=O)N1c1ccc2c(c1)OCO2 (racemic) [Compound 9001] | 5 to 50 µM
29 | O=C(NC1CC1c1ccccc1)C1C(c2ccc(Br)c(Br)c2)OC2(C(=O)c3ccccc3C2=O)C1C(=O)O (single isomer, unassigned) [Compound 1088] | 0.5 to 5 µM
30 | O=C(NC1CC1c1ccccc1)C1C(c2ccc(Br)c(Br)c2)OC2(C(=O)c3ccccc3C2=O)C1C(=O)O (single isomer, unassigned) [Compound 1089] | < 0.5 µM
31 | O=C(Nc1ccc(-c2csnn2)cc1)C1C(c2ccc(Br)c(Br)c2)OC2(C(=O)c3ccccc3C2=O)C1C(=O)O (single isomer, unassigned) [Compound A1001] | 5 to 50 µM
32 | O=C(Nc1ccc(-c2csnn2)cc1)C1C(c2ccc(Br)c(Br)c2)OC2(C(=O)c3ccccc3C2=O)C1C(=O)O (single isomer, unassigned) [Compound A1002] | < 0.5 µM
33 | Cc1ccc2c(c1)C(=O)C1(OC(c3ccc(Cl)c(Cl)c3)C(C(=O)Nc3ccc4c(c3)OCO4)C1C(=O)O)C2=O (single isomer, unassigned) [Compound A1003] | 5 to 50 µM
34 | Cc1ccc2c(c1)C(=O)C1(OC(c3ccc(Cl)c(Cl)c3)C(C(=O)Nc3ccc4c(c3)OCO4)C1C(=O)O)C2=O (single isomer, unassigned) [Compound A1004] | 5 to 50 µM
35 | Cc1ccc2c(c1)C(=O)C1(OC(c3ccc(Cl)c(Cl)c3)C(C(=O)Nc3ccc4c(c3)OCO4)C1C(=O)O)C2=O (single isomer, unassigned) [Compound A1005] | < 0.5 µM
36 | Cc1ccc2c(c1)C(=O)C1(OC(c3ccc(Br)c(Br)c3)C(C(=O)Nc3ccc(-c4csnn4)cc3)C1C(=O)O)C2=O (single isomer, unassigned) [Compound A1010] | 0.5 to 5 µM
37 | Cc1ccc2c(c1)C(=O)C1(OC(c3ccc(Br)c(Br)c3)C(C(=O)Nc3ccc(-c4csnn4)cc3)C1C(=O)O)C2=O (single isomer, unassigned) [Compound A1011] | < 0.5 µM
38 | O=C(Nc1ccc(N2CCOCC2)cc1)C1C(c2ccc(Br)c(Br)c2)OC2(C(=O)c3ccccc3C2=O)C1C(=O)O (single isomer, unassigned) [Compound A1012] | 5 to 50 µM
39 | O=C(Nc1ccc(N2CCOCC2)cc1)C1C(c2ccc(Br)c(Br)c2)OC2(C(=O)c3ccccc3C2=O)C1C(=O)O (single isomer, unassigned) [Compound A1013] | < 0.5 µM
40 | Cc1ccc2c(c1)C(=O)C1(OC(c3ccc(Br)c(Br)c3)C(C(=O)Nc3ccc(N4CCOCC4)cc3)C1C(=O)O)C2=O (single isomer, unassigned) [Compound A1014] | < 0.5 µM
